In patent publication US9981938B2, “Quaternary ammonium alkyl esters as stable prodrugs” (ALLERGAN, INC., priority 2014, dated 2018):

Experiment: Stability of compounds in aqueous solution
Type: physicochemical
Details: compound dissolved in aqueous solution, in %; for stability, 25° C./ 7 days: maintained at 25° C. for 7 days; for stability, 25° C./ 14 days: maintained at 25° C. for 14 days; for stability, 40° C./ 7 days: maintained at 40° C. for 7 days
Description: In some embodiments the stability of the compound is such that, when stored in an aqueous solution at 25° C. for 7 days or 14 days, at least about 70%, at least about 80%, at least about 90%, at least about 95%, at least about 97%, at least about 99% of the original compound, and up to about 100% of the original compound remains in the solution. In some embodiments, the stability of the compound is such that at least about 70%, at least about 80%, at least about 90%, at least about 95%, at least about 97%, at least about 99% of the original compound, and up to about 100% of original compound remains after 7 days of storage in an aqueous solution at 40° C.
The following Table 1 depicts various embodiments indicating the stability of compounds depicted by their respective structures in the table. The compounds were dissolved in an aqueous solution, and maintained at the indicated temperatures, for 7 to 14 days, as indicated.

Row | stability, 25° C./ 7 days | stability, 25° C./ 14 days | stability, 40° C./ 7 days | SMILES
1 | 100.5 | 101.1 | 101.8 | CC[N+](C)(CC)CCCOC(=O)c1ccc(CCC[C@@H]2[C@@H](CCc3cc(Cl)cc(Cl)c3)[C@H](O)C[C@H]2Cl)s1 [Compound 9, {3-[5-(3-{(1R, 2R, 3R, 5R)-5-Chloro-2-[2-(3,5-dichlorophenyl)ethyl]-3-hydroxycyclopentyl}-propyl)thiophene-2-carbonyloxy]propyl}diethyl methyl ammonium iodide]
2 | 103.0 | 102.9 | 98.0 | O=C(OCCCN1CCOCC1)c1ccc(CCC[C@@H]2[C@@H](CCc3cc(Cl)cc(Cl)c3)[C@H](O)C[C@H]2Cl)s1 [Compound 6, 5-(3-{(1R, 2R, 3R, 5R)-5-Chloro-2-[2-(3,5-dichlorophenyl)ethyl]-3-hydroxycyclopentyl}propyl)thiophene-2-carboxylic acid, 3-morpholin-4-yl propyl ester]
3 | 94.3 | 78.5 | 70.3 | CC(CN(C)C)OC(=O)c1ccc(CCC[C@@H]2[C@@H](CCc3cc(Cl)cc(Cl)c3)[C@H](O)C[C@H]2Cl)s1 (stereo partly drawn) [Compound 7, 5-(3-{(1R, 2R, 3R, 5R)-5-Chloro-2-[2-(3,5-dichlorophenyl)ethyl]-3-hydroxycyclopentyl}propyl)thiophene-2-carboxylic acid, 2-dimethylamino-1-methyl ethyl ester]
4 | 96.4 | 95.2 | 78.0 | CN(C)Cc1ccc(OC(=O)c2ccc(CCC[C@@H]3[C@@H](CCc4cc(Cl)cc(Cl)c4)[C@H](O)C[C@H]3Cl)s2)cc1 [Compound 2, 5-(3-{(1R, 2R, 3R, 5R)-5-Chloro-2-[2-(3,5-dichlorophenyl)ethyl]-3-hydroxycyclopentyl}-propyl)thiophene-2-carboxylic acid 4-dimethylaminomethyl phenyl ester]
5 | 95.8 | 84.6 | 79.1 | CCN(CC)CCOC(=O)c1ccc(CCC[C@@H]2[C@@H](CCc3cc(Cl)cc(Cl)c3)[C@H](O)C[C@H]2Cl)s1 [Compound 8, 5-(3-{(1R, 2R, 3R, 5R)-5-Chloro-2-[2-(3,5-dichlorophenyl)ethyl]-3-hydroxycyclopentyl}-propyl)thiophene-2-carboxylic acid, 2-diethylaminoethyl ester]
6 | 98.5 | 95.4 | 89.3 | CC(CCN1CCOCC1)OC(=O)c1ccc(CCC[C@@H]2[C@@H](CCc3cc(Cl)cc(Cl)c3)[C@H](O)C[C@H]2Cl)s1 (stereo partly drawn) [Compound 5, 5-(3-{(1R, 2R, 3R, 5R)-5-Chloro-2-[2-(3,5-dichlorophenyl)ethyl]-3-hydroxycyclopentyl}propyl)thiophene-2-carboxylic acid, 1-methyl-3-morpholin-4-yl propyl ester]
7 | 97.3 | 97.3 | 91.7 | O=C(Oc1ccc(CN2CCOCC2)cc1)c1ccc(CCC[C@@H]2[C@@H](CCc3cc(Cl)cc(Cl)c3)[C@H](O)C[C@H]2Cl)s1 [Compound 3, 5-(3-{(1R, 2R, 3R, 5R)-5-Chloro-2-[2-(3,5-dichlorophenyl)ethyl]-3-hydroxycyclopentyl}-propyl)thiophene-2-carboxylic acid 4-morpholin-4-ylmethyl phenyl ester]
8 | 98.7 | 100.2 | 96.0 | CN(C)c1ccc(OC(=O)c2ccc(CCC[C@@H]3[C@@H](CCc4cc(Cl)cc(Cl)c4)[C@H](O)C[C@H]3Cl)s2)cc1 [Compound 4, 5-(3-{(1R, 2R, 3R, 5R)-5-Chloro-2-[2-(3,5-dichlorophenyl)ethyl]-3-hydroxycyclopentyl}-propyl)thiophene-2-carboxylic acid 4-dimethylaminophenyl ester]
